Laboratory results reported in patent US10376553B2, “Pharmaceutical composition for preventing and treating chronic obstructive lung disease containing, as active ingredient, Magnoliae flos extract, fraction, or active fraction thereof” (KOREA RESEARCH INSTITUTE OF BIOSCIENCE AND BIOTECHNOLOGY, priority 2015, dated 2019).
“And” between values parts separate entries of the source, which are not always exact repeats. Equal values may be shown once.

How the values were obtained:
Assay type in all cases: in vivo, C57BL/6N mice
[1] = system: inflammatory cells in the bronchoalveolar lavage fluid; test: Inflammatory cells in bronchoalveolar lavage fluid of the COPD mouse model (cigarette smoke + LPS); settings: 10 mg/kg p.o., BALF, vs COPD-induced group
Method: Six-week-old male SPF (specific pathogen-free) C57BL/6N mice (22 to 24 g) were supplied by Koatech (Korea). These animals were fed with a sufficient amount of solid feed (no antibiotics, Samyang Feed Co.) and water until the day of the experiment. They were allowed to adapt for 1 week in a light-dark cycle environment at a temperature of 22±2° C. and a humidity of 55±15%, and then subjected to the experiment.
The animal model was exposed to cigarette smoke to induce chronic obstructive pulmonary disease. 3R4F Kentuchy Reference Cigarettes as standard cigarettes for use to generate cigarette smoke were supplied by University of California (USA). The standard cigarettes contain 9.4 mg of tar, 11 mg of total particle matter (TPM), and 12 mg of carbon monoxide per 1 cigarette. The standard cigarettes were used after harmonization for 48 hours to 72 hours at a temperature of 22±1° C. and a humidity of 60±2%. Further, Cigarette Smoke Generator manufactured by Korea BioLink (Korea) was used for exposure to cigarette smoke. Cigarette smoke was inhaled for 1 hour (8 pcs/hour) for 7 days from 1 hour after oral administration of a sample. 10 μg of LPS (lipopolysaccharide) in PBS 50 μL was injected intranasally to each mouse on the 4th day of the experiment after the mouse was anesthetized with zoletyl 1 hour before the exposure to cigarette smoke. The smoking condition was 8 puffs per 1 standard cigarette (volume: 45 mL, duration: 2 seconds, and interval: 1 time/min).
The active fraction of Magnoliae flos (15, 30 mg/kg) and roflumilast (10 mg/kg) as therapeutic substances were dissolved in 0.5% sodium carboxymethyl cellulose and were orally administered 1 hour before the exposure to cigarette smoke.
The experimental groups were divided into (i) normal control (NC) group; (ii) cigarette smoke+LPS exposure group (COPD); (iii) experimental group administered with roflumilast (ROF) (10 mg/kg, p.o) 1 hour before the exposure to cigarette smoke+LPS; and (iv) experimental group administered with the active fraction of Magnoliae flos (15, 30 mg/kg, p.o; Magnoliae flos 15 and Magnoliae flos 30) 1 hour before the exposure to cigarette smoke+LPS. […] Then, they were administered in the same manner as above.
The bronchial alveolar lavage fluid was separated from the animal model treated with the active fraction and the compounds of Magnoliae flos in <Test Example 6-2> above in the following manner, and the number of inflammatory cells was measured.
Specifically, a mouse sonde was inserted into the bronchial tube, a 1 mL syringe containing 0.7 mL of DPBS (Dulbecco's Phosphate-Buffered Saline) was connected thereto, and DPBS was injected into the lung. The injected DPBS was recovered, and this procedure was repeated twice. The bronchoalveolar lavage fluid separated by DPBS was centrifuged at 1,500 rpm for 15 minutes to make a cell pellet. The supernatant was stored frozen at −70° C. for cytokine analysis. Each cell obtained was suspended in DPBS, attached to a slide glass using a cytospin centrifuge, and Diff-Quik stained. The number of inflammatory cells in each sample was counted through microscopic examination, and the inhibition rate was calculated according to the following Equation 3.
Inhibition rate=(Value of COPD-induced group−value of target substance administered group)×100/(Value of COPD-induced group) [Equation 3]

[2] = system: reactive oxygen species; test: Production of active oxygen species in BALF of the COPD model (DCF-DA); settings: 10 mg/kg p.o., vs COPD-induced group
Method: Production of active oxygen species in the bronchoalveolar lavage fluid obtained in <Test Example 6-3> above was confirmed by the following method.
Specifically, the separated BALF (200 μL) was treated to the final concentration of 20 μM of DCF-DA (dihydrodichlorofluorescein diacetate, Sigma-Aldrich, USA), followed by culturing for 30 minutes and measurement using Fluorescence (Molecular Device, USA). The inhibition rate was calculated by Equation 3 above.

[3] = system: IL-6; test: IL-6 level in BALF of the COPD model (ELISA); settings: vs COPD-induced group
Method: (§1) Cytokines were measured in the cell supernatant obtained in <Test Example 6-3> above by the following method. Specifically, the levels of IL-6 (R & D System, USA) and TNF-α (BD Bioscience, USA) in the separated BALF were measured by enzyme-linked immuno-sorbent assay (ELISA). Each cytokine analysis was carried out according to the manufacturer's test method.

[4] = system: TNF-α; test: TNF-α level in BALF of the COPD model (ELISA); settings: 10 mg/kg p.o., BALF, vs COPD-induced group
Method: as §1

[5] = system: infiltration of inflammatory cells in the lung tissue; test: Lung tissue histopathology (H&E) in the COPD model; settings: vs COPD-induced group
Method: Specifically, the lung was taken out and immediately fixed in a 10% formaldehyde solution, which was then sliced and washed with running water for 8 hours. It was then embedded in […] and Hematoxylin & Eosin stained, and the pathological changes in the lung tissue were examined using an optical microscope.

SMILES: O=C(Nc1c(Cl)cncc1Cl)c1ccc(OC(F)F)c(OCC2CC2)c1 [ROF, roflumilast, reference compound]
- Inhibition rate of inflammatory cell infiltration (%) Macrophage [1]: 36.9 ± 15.0% and 30.6 ± 9.9%
- Inhibition rate of inflammatory cell infiltration (%) Neutrophil [1]: 31.9 ± 7.6% and 37.4 ± 8.3%
- Inhibition rate of inflammatory cell infiltration (%) Total inflammatory cells [1]: 34.9 ± 4.6% and 39.4 ± 7.2%
- Active oxygen inhibition rate (%) [2]: 25.9 ± 4.3%
- IL-6 in the bronchoalveolar lavage fluid (in words) [3]: decreased
- TNF-α inhibition rate (%) [4]: 44.8 ± 3.8% and 30.8 ± 5.9%
- infiltration of inflammatory cells around the alveoli and bronchi (in words) [5]: reduced
